Marks after values point to notes of the source that are not given here.
What was measured:
[1] = test system: Sclerotinia sclerotiorum; test: Test C: cucumber white mold, preventive spray on cucumber seedlings
[2] = test system: Septoria tritici; test: Test J: wheat leaf blotch, preventive spray on wheat seedlings; type: in vivo
From the text: A dash (-) indicates no test results.

[3] = test system: Septoria nodorum; test: Test H: wheat glum blotch, preventive spray on wheat seedlings; details: 40 ppm (*)
Method: (the causal agent of wheat glum blotch) and incubated in a saturated atmosphere at 20° C. for 48 h, and then moved to a growth chamber at 22° C. for 5 days, after which disease ratings were made.

[4] = test system: Colletotrichum orbiculare; test: Test B: cucumber Colletotrichum anthracnose, preventive spray on cucumber seedlings; details: 40 ppm (*)
[5] = test system: Puccinia recondita f. sp. tritici; test: Test K: wheat leaf rust, preventive spray on wheat seedlings; details: 40 ppm (*)
[6] = test system: Rhizoctonia oryzae; test: Test G: turf brown patch, preventive spray on creeping bent grass seedlings; details: 40 ppm (*)
Method: (the causal agent of turf brown patch) and incubated in a saturated atmosphere at 27° C. for 24 h, and then moved to a growth chamber at 27° C. for 5 days, after which disease ratings were made.

[7] = test system: Erysiphe graminis f. sp. tritici; test: Test L: wheat powdery mildew, preventive spray on wheat seedlings; details: 40 ppm (*)
[8] = test system: Botrytis cinerea; test: Test E: tomato botrytis, preventive spray on tomato seedlings; details: 40 ppm (*)
[9] = test system: Phytophthora infestans; test: whole plant or invertebrate; type: in vivo
[10] = test system: Pythium aphanidermatum; test: Test A: bluegrass pythium blight, preventive spray on bluegrass seedlings
[11] = test system: Plasmopara viticola; test: Test D: grape downy mildew, spray after inoculation of grape seedlings; type: in vivo
From the text: Upon removal, disease ratings were made. […] A dash (-) indicates no test results.

[12] = test system: fusarium graminearium; test: Test I: wheat head scab, preventive spray on wheat seedlings
Method: (the causal agent of wheat head scab) and incubated in a saturated atmosphere at 20° C. for 72 h, and then moved to a growth chamber at 22° C. for 5 days, after which disease ratings were made.

Row | SMILES | Test C disease control rating ([1]; 200 ppm) | Test J disease control rating ([2]; 40 ppm (*)) | Test H disease control rating [3] | Test B disease control rating [4] | Test K disease control rating [5] | Test G disease control rating [6] | Test L disease control rating [7] | Test E disease control rating [8] | Test F disease control rating ([9]; 200 ppm) | Test A disease control rating ([10]; 200 ppm) | Test D disease control rating ([11]; 200 ppm) | Test I disease control rating ([12]; 200 ppm) | Test C disease control rating ([1]; 40 ppm (*)) | Test F disease control rating ([9]; 40 ppm (*)) | Test A disease control rating ([10]; 40 ppm (*)) | Test D disease control rating ([11]; 40 ppm (*)) | Test I disease control rating ([12]; 40 ppm (*)) | Test J disease control rating ([2]; 200 ppm)
1 | CC(C)Cn1c(-c2c(Cl)ccc(Cl)c2Cl)c(Cl)nc(-n2cncn2)c1=O [compound 120] | 93% | 91* % | 64* % | 0* % | 55* % | 0* % | 0* % | 99* % | 0% | 0% | 0% | 86% |  |  |  |  |  | 
2 | COC(=O)Cn1c(-c2c(F)cccc2F)c(Cl)nc(-n2cccn2)c1=O [compound 122] |  | 7* % | 0* % | 0* % | 28* % | 16* % | 0* % | 49* % |  |  |  |  | 0* % | 0* % | 0* % | 58* % | 0* % | 
3 | COC(=O)Cn1c(-c2c(F)cccc2F)c(Cl)nc(-n2cncn2)c1=O [compound 123] |  | 19* % | 0* % | 0* % | 0* % | 0* % | 0* % | 0* % |  |  |  |  | 0* % | 0* % | 0* % | 0* % | 0* % | 
4 | O=c1c(-n2cccn2)nc(Cl)c(-c2c(F)cccc2F)n1CCCl [compound 124] |  | 100* % | 100* % | 0* % | 100* % | 21* % | 0* % | 99* % |  |  |  |  | 0* % | 0* % | 0* % | 0* % | 0* % | 
5 | O=c1c(-n2cncn2)nc(Cl)c(-c2c(F)cccc2F)n1CCCl [compound 125] |  | 71* % | 0* % | 0* % | 55* % | 0* % | 0* % | 0* % |  |  |  |  | 0* % | 0* % | 0* % | 0* % | 0* % | 
6 | CS(=O)(=O)CCn1c(-c2c(F)cccc2F)c(Cl)nc(-n2cccn2)c1=O [compound 126] |  | 19* % | 0* % | 0* % | 0* % | 0* % | 0* % | 0* % |  |  |  |  | 0* % | 0* % | 0* % | 0* % | 0* % | 
7 | CS(=O)(=O)CCn1c(-c2c(F)cccc2F)c(Cl)nc(-n2cncn2)c1=O [compound 127] |  |  | 0* % | 0* % | 0* % | 0* % | 0* % | 0* % |  |  |  |  | 0* % | 0* % | 0* % | 0* % | 0* % | 16%

Source: US20080194585A1, “Fungicidal Pyrazine Derivatives” (priority 2005, published 2008)
